Among the data in article PMC13017400, “ENPP1 inhibition as a therapeutic approach for later-onset hypophosphatasia” (Journal of Bone and Mineral Research, 2025) are IC50 values, retold here.

For the test, the target named is T1, ENPP1 (ectonucleotide pyrophosphatase/phosphodiesterase 1) (Mus musculus, UniProt P06802).
T1 sequence (P06802 1-906): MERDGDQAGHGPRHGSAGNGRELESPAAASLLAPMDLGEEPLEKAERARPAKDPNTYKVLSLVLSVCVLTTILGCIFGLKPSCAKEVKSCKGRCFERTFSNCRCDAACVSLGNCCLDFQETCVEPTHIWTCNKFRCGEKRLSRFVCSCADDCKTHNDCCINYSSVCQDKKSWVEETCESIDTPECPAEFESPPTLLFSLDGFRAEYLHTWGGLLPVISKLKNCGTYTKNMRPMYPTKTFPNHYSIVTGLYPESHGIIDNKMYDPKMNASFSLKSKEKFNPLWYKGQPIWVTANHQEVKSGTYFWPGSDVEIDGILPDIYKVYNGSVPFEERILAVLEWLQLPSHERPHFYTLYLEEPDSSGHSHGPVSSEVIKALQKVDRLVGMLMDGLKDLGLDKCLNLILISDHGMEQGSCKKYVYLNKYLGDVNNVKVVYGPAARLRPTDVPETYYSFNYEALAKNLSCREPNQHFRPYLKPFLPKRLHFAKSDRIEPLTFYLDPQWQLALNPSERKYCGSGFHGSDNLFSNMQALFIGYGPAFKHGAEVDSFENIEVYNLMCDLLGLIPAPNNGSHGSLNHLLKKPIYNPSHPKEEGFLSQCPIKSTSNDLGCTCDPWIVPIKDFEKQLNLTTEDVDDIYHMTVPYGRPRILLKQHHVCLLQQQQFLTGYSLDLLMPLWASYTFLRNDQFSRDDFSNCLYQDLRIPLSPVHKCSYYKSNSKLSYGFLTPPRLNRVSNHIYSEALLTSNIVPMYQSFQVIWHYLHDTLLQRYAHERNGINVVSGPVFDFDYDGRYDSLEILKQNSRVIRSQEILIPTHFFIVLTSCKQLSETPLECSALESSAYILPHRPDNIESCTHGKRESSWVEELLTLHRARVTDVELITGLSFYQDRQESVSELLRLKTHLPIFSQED
In words: Transcreener AMP/GMP TR-FRET enzymatic assay, […] mouse ENPP1 protein, […] ATP. The test is classed as biochemical.

Consider REV102, for which the IC50 – broadly, the concentration that gives 50% inhibition – turned out to be 6.3 nM.
